Take `CCN(CC)CCCc1c[nH]c2ccc(NS(=O)(=O)c3ccc4ccccc4c3)cc12` [Example 42c, N-[3-(3-diethylaminopropyl)-1H-indol-5-yl]naphthalene-2-sulphonamide]: the melting point lay in the range of 128 to 130 °C.

As to `CN1CCN(CCc2c[nH]c3ccc(NS(=O)(=O)c4cccc5c(Cl)cccc45)cc23)CC1` [Example 53c, N-[3-(4-methylpiperazin-1-yl)ethyl-1H-indol-5-yl]-5-chloronaphthalene-1-sulphonamide], the melting point is 246 to 249 °C.

As for `CN1CCN(Cc2c[nH]c3ccc(NS(=O)(=O)/C=C/c4ccccc4)cc23)CC1`, the melting point is 203 °C (dec.).

For the compound `CN(C)CCn1ccc2c(NS(=O)(=O)c3ccc(-c4ccccc4)cc3)cccc21` [Example 4d, N-[1-(2-dimethylaminoethyl)-1H-indole-4-yl]-4 phenylbenzenesulfonamide], the melting point was 137 to 140 °C.

As to `CC(C)N(c1ccccc1)c1ccc(NC(=O)CN2CCC(N3C(=O)OCc4ccccc43)CC2)cc1.Cl`, the melting point was in the range of 171 to 173 °C.

For the compound `CN(C)CCn1ccc2cc(NS(=O)(=O)c3ccc(F)cc3)ccc21` [Example 26e, N-[1-(2-dimethylaminoethyl)-1H-indole-5-yl]-4-fluorobenzenesulfonamide], the melting point was in the range of 138 to 140 °C.

The compound `Cc1c(S(=O)(=O)Nc2ccc3[nH]cc(CCN4CCCC4)c3c2)sc2ccc(Cl)cc12` came in with a melting point of 201 to 203 °C.

Turning to `O=S(=O)(Nc1ccc2c(ccn2CCCN2CCCCC2)c1)c1cc(Cl)c(Cl)s1` [Example 51e, 4,5-dichloro-N-(1-(3-(piperidin-1-yl)propyl)-1H-indol-5-yl)thiophene-2-sulfonamide], the melting point is 70 to 72 °C.

Regarding `Cc1ccc2c(c1)COC(=O)N2C1CCN(CC(=O)Nc2ccccc2)CC1`, the melting point was in the range of 154 to 157 °C.

`Cc1cccc2c1N(C1CCN(CC(=O)Nc3ccc(Oc4ccccc4)cc3)CC1)C(=O)OC2.Cl` gave a melting point of 162 to 167 °C.

Regarding `CN(C)CCn1ccc2cc(NS(=O)(=O)/C=C/c3ccccc3)ccc21`, the melting point lay in the range of 108 to 111 °C.

Regarding `Cc1c(S(=O)(=O)Nc2cccc3c2ccn3CCN(C)C)sc2ccc(Cl)cc12` [Example 1d, N-[1-(2-dimethylaminoethyl)-1H-indole-4-yl]-5-chloro-3-methyl-benzo[b]thiophene-2-sulfonamide], the melting point lay within 78 to 80 °C.

In turn, `CN(C)CCn1ccc2ccc(NS(=O)(=O)c3ccc4ccccc4c3)cc21` [Example 2f, N-[1-(2-Dimethylaminoethyl)-1H-indol-6-yl]-naphthalene-2-sulfonamide] showed a melting point of 140 to 143 °C.

Regarding `Cc1c(S(=O)(=O)Nc2ccc3[nH]cc(C4CCN5CCCC5C4)c3c2)sc2ccc(Cl)cc12` (centres unmarked) [Example 38c, N-[3-(octahydroindolizin-7-yl)-1H-indol-5-yl]-5-chloro-3-methylbenzo[b]thiophene-2-sulphonamide], the melting point lay in the range of 142 to 144 °C.

On to `Cc1cccc2c1N(C1CCN(CC(=O)Nc3ccc4c(c3)-c3ccccc3C4=O)CC1)C(=O)OC2.Cl`, for which the melting point is 233 to 236 °C.

In turn, `CN(C)CCn1ccc2cccc(NS(=O)(=O)c3ccc(-c4ccccc4)cc3)c21` [Example 3g, N-[1-(2-dimethylaminoethyl)-1H-indole-7-yl]-4-phenylbenzenesulfonamide] yielded a melting point of 137 to 140 °C.

As for `Cl.O=C(CN1CCC(N2C(=O)OCc3cc(Cl)ccc32)CC1)Nc1ccc(C(F)(F)F)cc1`, the melting point was in the range of 284 to 285 °C.

For `Cc1cc2cc(NS(=O)(=O)c3c(Cl)nc4sccn34)ccc2n1CCN(C)C` [Example 35e, 6-chloro-N-(1-(2-(dimethylamino)ethyl)-2-methyl-1H-indol-5-yl)imidazo[2,1-b]thiazole-5-sulfonamide], the melting point is 182 to 183 °C.

For `Cc1ccc2c(c1)COC(=O)N2C1CCN(CC(=O)Nc2ccccc2C(=O)c2ccccc2)CC1`, the melting point lay in the range of 167 to 170 °C.

With `Cc1cc2cc(NS(=O)(=O)c3csc4ccccc34)ccc2n1CCN(C)C` [Example 40e, N-(1-(2-(dimethylamino)ethyl)-2-methyl-1H-indol-5-yl)benzo[b]thiophene-3-sulfonamide], the melting point was in the range of 167 to 169 °C.

For `Cl.O=C(CN1CCC(N2C(=O)OCc3ccccc32)CC1)Nc1ccc2c(c1)C(=O)c1ccccc1C2=O`, the melting point lay in the range of 280 to 282 °C.

`Cl.O=C(CN1CCC(N2C(=O)OCc3ccccc32)CC1)Nc1ccc(C(F)(F)F)cc1`: the melting point was 276 to 284 °C.

As for `CCN(c1ccccc1)c1ccc(NC(=O)CN2CCC(N3C(=O)OCc4ccc(C)cc43)CC2)cc1`, the melting point came to 199 °C.

Regarding `CCN(CC)CCc1c[nH]c2ccc(NS(=O)(=O)c3cccc4c(Cl)cccc34)cc12`, the melting point lay within 154 to 156 °C.

Compound `CN(C)CCn1ccc2cc(NS(=O)(=O)c3cc(Cl)cc(Cl)c3)ccc21` [Example 12e, N-[1-(2-dimethylaminoethyl)-1H-indole-5-yl]-3,5-dichlorobenzenesulfonamide] displayed a melting point of 124 to 126 °C.

Compound `CN1CCC(c2c[nH]c3ccc(NS(=O)(=O)c4ccc(-c5ccccc5)cc4)cc23)CC1` [Example 15c, N-[3-(1-methylpiperidin-4-yl)-1H-indol-5-yl]-4-phenylbenzenesulphonamide] returned a melting point of 247 to 248 °C.

For the compound `CN1CCC(c2c[nH]c3ccc(NS(=O)(=O)c4cccc5ccccc45)cc23)CC1` [Example 12c, N-[3-(1-methylpiperidin-4-yl)-1H-indol-5-yl]naphthalene-1-sulphonamide], the melting point fell in the range of 254 to 256 °C.

As to `CN1CCC(c2c[nH]c3ccc(NS(=O)(=O)c4cccc5cccnc45)cc23)CC1` [Example 16c, N-[3-(1-methylpiperidin-4-yl)-1H-indol-5-yl]quinoline-8-sulphonamide], the melting point was 280 °C (dec.).

Compound `O=S(=O)(Nc1ccc2ccn(CCN3CCCC3)c2c1)c1c(Cl)nc2sccn12` [Example 12f, 6-Chloro-N-[1-[2-(pyrrolidin-1-yl)ethyl]-1H-indol-6-yl]-imidazo[2,1-b]thiazole-5-sulfonamide] displayed a melting point of 53 to 57 °C.

The compound `Cc1c(S(=O)(=O)Nc2cccc3ccn(CCN4CCCC4)c23)sc2ccc(Cl)cc12` [Example 5g, 5-chloro-3-methyl-N-(1-(2-(pyrrolidin-1-yl)ethyl)-1H-indol-7-yl)-benzo[b]thiophen-2-sulfonamide] showed a melting point of 82 to 85 °C.

Compound `Cc1c(S(=O)(=O)Nc2ccc3c(ccn3CCN(C)C)c2)sc2ccc(Cl)cc12` [Example 1e, N-[1-(2-dimethylaminoethyl)-1H-indole-5-yl]-5-chloro-3-methylbenzo[b]thiophene-2-sulfonamide] displayed a melting point of 71 to 73 °C.

Consider `CC(=O)c1ccc(S(=O)(=O)Nc2ccc3c(ccn3CCN(C)C)c2)cc1` [Example 21e, N-[1-(2-dimethylaminoethyl)-1H-indole-5-yl]-4-acetylbenzenesulfonamide], for which the melting point was 175 °C (dec.).

`Cc1cccc2c1N(C1CCN(CC(=O)Nc3ccc(Cl)cc3)CC1)C(=O)OC2.Cl` came in with a melting point of 245 to 253 °C.

The compound `CN1CCN(CCc2c[nH]c3ccc(NS(=O)(=O)c4ccc5ccccc5c4)cc23)CC1` gave a melting point of 129 to 131 °C.

In the case of `Cc1ccc2c(c1)COC(=O)N2C1CCN(CC(=O)Nc2ccc3c(c2)C(O)c2ccccc2-3)CC1.Cl` (centres unmarked), the melting point fell in the range of 196 to 199 °C.

`CN1CC=C(c2cn(S(=O)(=O)C3CCCCC3)c3ccc([N+](=O)[O-])cc23)CC1` [Example 1h, 1-Cyclohexanesulfonyl-3-(1-methyl-1,2,3,6-tetrahydropyridine-4-yl)-5-nitro-1H-indole] showed a melting point of 155 to 160 °C.

`CN(C)CCn1ccc2cc(NS(=O)(=O)Cc3ccccc3)ccc21` [Example 15e, N-[1-(2-dimethylaminoethyl)-1H-indole-5-yl]-1-phenylmethanesulfonamide] displayed a melting point of 163 to 166 °C.

The compound `CN(C)CCc1c[nH]c2ccc(NS(=O)(=O)c3ccc(Oc4ccccc4)cc3)cc12` came in with a melting point of 152 to 154 °C.

Consider `Cl.O=C(CN1CCC(N2C(=O)OCc3cc(Cl)ccc32)CC1)Nc1ccc2c(c1)-c1ccccc1C2O` (centres unmarked), for which the melting point was 219 to 222 °C.

Regarding `CCN(CC)CCc1c[nH]c2ccc(NS(=O)(=O)c3sc4ccc(Cl)cc4c3C)cc12` [24e], the melting point is 53 to 56 °C.

`O=S(=O)(Nc1ccc2[nH]cc(CCN3CCOCC3)c2c1)c1cccc2ccccc12` had a melting point of 218 to 220 °C.

As for `Cc1c(S(=O)(=O)Nc2ccc3[nH]cc(CN(C)C)c3c2)sc2ccc(Cl)cc12` [Example 30c, N-[3-dimethylaminomethyl-1H-indol-5-yl]-5-chloro-3-methylbenzo[b]thiophene-2-sulphonamide], the melting point lay in the range of 148 to 152 °C.

With `Cl.O=C(CN1CCC(N2C(=O)OCc3cc(Cl)ccc32)CC1)Nc1ccc(C2CCCCC2)cc1`, the melting point is 249 to 256 °C.

In turn, `Cc1c(S(=O)(=O)Nc2cccc3ccn(CCN(C)C)c23)sc2ccc(Cl)cc12` [Example 2g, N-[1-(2-dimethylaminoethyl)-1H-indole-7-yl]-5-chloro-3-methylbenzo[b]thiophene-2-sulfonamide] registered a melting point of 57 to 65 °C.

`CN(C)CCc1c[nH]c2ccc(NS(=O)(=O)c3ccc4c(Cl)cccc4c3)cc12`: the melting point was 230 to 240 °C (dec.).

`CCN(CC)CCc1c[nH]c2ccc(NS(=O)(=O)c3ccc(-c4ccccc4)cc3)cc12` [Example 5c, N-[3-(2-diethylaminoethyl)-1H-indol-5-yl]-4-phenylbenzenesulphonamide] returned a melting point of 161 to 163 °C.

For the compound `CN(C)CCc1c[nH]c2ccc(NS(=O)(=O)c3cccc4c(Cl)cccc34)cc12`, the melting point lay within 201 to 203 °C.

In turn, `CCn1c2ccccc2c2cc(NC(=O)CN3CCC(N4C(=O)OCc5cc(Cl)ccc54)CC3)ccc21.Cl` yielded a melting point of 265 to 268 °C.

The compound `CCN(CC)CCc1c[nH]c2ccc(NS(=O)(=O)c3ccc(Cl)s3)cc12` [Example 6c, N-[3-(2-diethylaminoethyl)-1H-indol-5-yl]-5-chlorothiophene-2-sulphonamide] displayed a melting point of 180 to 181 °C.

`Cc1cccc2c1COC(=O)N2C1CCN(CC(=O)Nc2ccc3[nH]c4ccccc4c3c2)CC1` registered a melting point of 213 °C.

The record behind these values is US20070059364A1, “Active substance combination comprising a compound with npy receptor affinity and a compound with 5-ht6 receptor affinity” (Laboratorios Del Dr. Esteve S.A., priority 2003, published 2007).
